# What was measured:
# Format in all cases: in vivo
# [1] = tested on: barnyard grass (Echinochloa crus-galli); test: Pre-emergence application, herbicidal effect on barnyard grass (Table 1); set-up: key: 0: not damaged; 5: completely killed; details: 20 days after application, score 0-5
# Procedure, shortened: (§1)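 Pre-emergence soil treatment: seeds sown in pots of about 10 cm and covered with soil, then compounds applied as wettable powder diluted in water. Plants grown in a greenhouse; damage scored 20 days after application from 0 (not damaged) to 5 (completely killed).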
# [2] = tested on: large crabgrass (Digitaria sanguinalis); test: Pre-emergence application, herbicidal effect on large crabgrass (Table 1); set-up: key: 0: not damaged; 5: completely killed; details: 20 days after application, score 0-5
# Procedure, shortened: as §1
# radish = test: Pre-emergence application, herbicidal effect on radish (Table 1); set-up: key: 0: not damaged; 5: completely killed; details: 20 days after application, score 0-5
# Procedure, shortened: as §1
# [3] = tested on: redroot pigweed (Amaranthus retroflexus); test: Pre-emergence application, herbicidal effect on redroot pigweed (Table 1); set-up: key: 0: not damaged; 5: completely killed; details: 20 days after application, score 0-5
# Procedure, shortened: as §1
# [4] = tested on: common purslane (Portulaca oleracea); test: Pre-emergence application, herbicidal effect on common purslane (Table 1); set-up: key: 0: not damaged; 5: completely killed; details: 20 days after application, score 0-5
# Procedure, shortened: as §1
# [5] = tested on: common lambsquarter (Chenopodium album); test: Pre-emergence application, herbicidal effect on common lambsquarter (Table 1); set-up: key: 0: not damaged; 5: completely killed; details: 20 days after application, score 0-5
# Procedure, shortened: as §1
# rice = test: Water application, phytotoxicity on rice (Table 2); set-up: key: 0: no effect; 1: very slightly affected; 2: slightly affected; 3: moderately affected; 4: considerably affected; 5: completely killed; details: 25 days, score 0-5
# Procedure, shortened: (§2)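 Flooded paddy-soil pots with 3-leaf-stage transplanted rice and sown barnyard grass; wettable-powder compounds applied to soil under water. Herbicidal effect and rice phytotoxicity, also on spontaneously germinated broad-leaved weeds, scored 0–5 at 25 days after application.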
# [6] = tested on: carmine mite (Tetranychus telavius); test: Lethal effect on carmine mite, leaf dipping (Table 3); details: foliar, 48 h
# Method: A large number of carmine mite adult were made parasitic on leaves of potted kidney beans at a 2-leaves stage which had elapsed 10 days after sowing. The leaves of kidney bean on which carmine mites had been made parasitic were dipped for 1 minute in each aqueous solution of the present compounds of wettable powder type. Water was given to the leaves not to kill them, and after 48 hours the death and alive were observed microscopically to calculate the mortality. Values of LC50 were obtained from the mortality.
# [7] = tested on: tobacco cut worm (Spondoptera litura); test: Lethal effect on tobacco cut worm (Table 5); details: tobacco cutworm, larvae on chinese cabbage leaves, 48 h
# Method: The present compounds of an emulsifiable concentrate type were applied to leaves of chinese cabbage in the form of an 1000 fold dilute solution. After air-drying, third to fourth instar larvae of tobacco cut worm were released and after 48 hours the death and alive were observed.
# [8] = tested on: rice stem borer (Chilo suppressalis); test: Lethal effect on rice stem borer (Table 6); details: 50 % emulsifiable concentrate, 1000 fold dilute solution, 4 days after application
# Description: Eggs just before hatch of the rice stem borer were applied in a ratio of 100/pot near the root of rice plants grown up into the tillering stage in an […] Wagner's pot. After eggs were hatched and the larvae entered into stems of rice plants, an 1000 fold dilute solution of each 50 % emulsifiable concentrates of the present compounds was applied by means of a turn table.
# nematode = test: Effect on nematode (Table 7); set-up: tested at 500 ppm; details: 500 p.p.m., 24 hours
# Method: 0.5 ml. of a nematode-containing aqueous solution separated from food according to Baermann's method was placed in a test tube with ground stopper containing 0.5 ml. of an aqueous dilute solution of each emulsifiable concentrates of the present compounds. The concentration of the active ingredient in the mixture was adjusted to 500 p.p.m. After 24 hours, the death and alive were observed microscopically to calculate the mortality.
# [9] = tested on: barnyard grass (Echinochloa crus-galli); test: Water application, herbicidal effect on barnyard grass (Table 2); set-up: key: 0: not damaged; 5: completely killed; details: 25 days, score 0-5
# Procedure, shortened: as §2
# [10] = tested on: broad-leaved weeds, e.g., monochoria, false pimpernel and toothcup; test: Water application, herbicidal effect on broad-leaved weeds (Table 2); set-up: key: 0: not damaged; 5: completely killed; details: 25 days, score 0-5
# Procedure, shortened: as §2
# [11] = tested on: carmine mite (Tetranychus telarius); test: Lethal effect on carmine mite, degree of damage on kidney beans (Table 4); set-up: key: -: damage is hardly increased.; +: damage is slightly increased.; ++: damage is fairly increased.; +++: damage is heavily increased; details: 25% wettable powder, 200 fold dilute solution, another week after application
# Description: About 50 carmine mite adults were made parasitic on leaves of potted kidney beans at a 2-leaves stage which had elapsed 10 days after swing. After a week, the present compounds of a 25% wettable powder type were each applied in the form of a 200 fold dilute solution.
compound,measurement,setting,value
CCOP(=O)(SCC(=O)N1CCCCC1C)SC(C)CC (stereo not shown) [Compound 5],"Herbicidal effect, barnyard grass",[1]; 10 g./a.,5
same,"Herbicidal effect, barnyard grass",[1]; 20 g./a.,5
same,"Herbicidal effect, barnyard grass",[1]; 40 g./a.,5
same,"Herbicidal effect, large crabgrass",[2]; 10 g./a.,5
same,"Herbicidal effect, large crabgrass",[2]; 20 g./a.,5
same,"Herbicidal effect, large crabgrass",[2]; 40 g./a.,5
same,"Herbicidal effect, radish",radish; 10 g./a.,0
same,"Herbicidal effect, radish",radish; 20 g./a.,0
same,"Herbicidal effect, radish",radish; 40 g./a.,0
same,"Herbicidal effect, redroot pigweed",[3]; 10 g./a.,5
same,"Herbicidal effect, redroot pigweed",[3]; 20 g./a.,5
same,"Herbicidal effect, redroot pigweed",[3]; 40 g./a.,5
same,"Herbicidal effect, common purslane",[4]; 10 g./a.,5
same,"Herbicidal effect, common purslane",[4]; 20 g./a.,5
same,"Herbicidal effect, common purslane",[4]; 40 g./a.,5
same,"Herbicidal effect, common lambsquarter",[5]; 10 g./a.,5
same,"Herbicidal effect, common lambsquarter",[5]; 20 g./a.,5
same,"Herbicidal effect, common lambsquarter",[5]; 40 g./a.,5
same,Phytotoxicity on rice,rice; 10 g/a,0
same,Phytotoxicity on rice,rice; 20 g/a,0
same,Phytotoxicity on rice,rice; 40 g/a,0
same,LC50,[6],7.9 µg/mL
same,Mortality,[7],70.0%
same,Mortality,[8],88.9%
same,Mortality,nematode,100%
same,"Herbicidal effects, barnyard grass",[9]; 10 g/a,5
same,"Herbicidal effects, barnyard grass",[9]; 20 g/a,5
same,"Herbicidal effects, barnyard grass",[9]; 40 g/a,5
same,"Herbicidal effects, broad-leaved weeds",[10]; 10 g/a,5
same,"Herbicidal effects, broad-leaved weeds",[10]; 20 g/a,5
same,"Herbicidal effects, broad-leaved weeds",[10]; 40 g/a,5
CCCSP(=O)(OCC)SCC(=O)N1CCCC(C)C1 (stereo not shown) [Compound 13],"Herbicidal effect, barnyard grass",[1]; 10 g./a.,5
same,"Herbicidal effect, barnyard grass",[1]; 20 g./a.,5
same,"Herbicidal effect, barnyard grass",[1]; 40 g./a.,5
same,"Herbicidal effect, large crabgrass",[2]; 10 g./a.,5
same,"Herbicidal effect, large crabgrass",[2]; 20 g./a.,5
same,"Herbicidal effect, large crabgrass",[2]; 40 g./a.,5
same,"Herbicidal effect, radish",radish; 10 g./a.,0
same,"Herbicidal effect, radish",radish; 20 g./a.,0
same,"Herbicidal effect, radish",radish; 40 g./a.,0
same,"Herbicidal effect, redroot pigweed",[3]; 10 g./a.,4
same,"Herbicidal effect, redroot pigweed",[3]; 20 g./a.,5
same,"Herbicidal effect, redroot pigweed",[3]; 40 g./a.,5
same,"Herbicidal effect, common purslane",[4]; 10 g./a.,4
same,"Herbicidal effect, common purslane",[4]; 20 g./a.,5
same,"Herbicidal effect, common purslane",[4]; 40 g./a.,5
same,"Herbicidal effect, common lambsquarter",[5]; 10 g./a.,4
same,"Herbicidal effect, common lambsquarter",[5]; 20 g./a.,5
same,"Herbicidal effect, common lambsquarter",[5]; 40 g./a.,5
same,Phytotoxicity on rice,rice; 10 g/a,0
same,Phytotoxicity on rice,rice; 20 g/a,0
same,Phytotoxicity on rice,rice; 40 g/a,0
same,Mortality,[7],73.3%
same,"Herbicidal effects, barnyard grass",[9]; 10 g/a,5
same,"Herbicidal effects, barnyard grass",[9]; 20 g/a,5
same,"Herbicidal effects, barnyard grass",[9]; 40 g/a,5
same,"Herbicidal effects, broad-leaved weeds",[10]; 10 g/a,5
same,"Herbicidal effects, broad-leaved weeds",[10]; 20 g/a,5
same,"Herbicidal effects, broad-leaved weeds",[10]; 40 g/a,5
CCOP(=O)(SCC(=O)N1CCCCC1C)SCc1ccc(C(C)(C)C)cc1 (stereo not shown) [Compound 50],"Herbicidal effect, barnyard grass",[1]; 10 g./a.,5
same,"Herbicidal effect, barnyard grass",[1]; 20 g./a.,5
same,"Herbicidal effect, barnyard grass",[1]; 40 g./a.,5
same,"Herbicidal effect, large crabgrass",[2]; 10 g./a.,5
same,"Herbicidal effect, large crabgrass",[2]; 20 g./a.,5
same,"Herbicidal effect, large crabgrass",[2]; 40 g./a.,5
same,"Herbicidal effect, radish",radish; 10 g./a.,0
same,"Herbicidal effect, radish",radish; 20 g./a.,1
same,"Herbicidal effect, radish",radish; 40 g./a.,2
same,"Herbicidal effect, redroot pigweed",[3]; 10 g./a.,5
same,"Herbicidal effect, redroot pigweed",[3]; 20 g./a.,5
same,"Herbicidal effect, redroot pigweed",[3]; 40 g./a.,5
same,"Herbicidal effect, common purslane",[4]; 10 g./a.,5
same,"Herbicidal effect, common purslane",[4]; 20 g./a.,5
same,"Herbicidal effect, common purslane",[4]; 40 g./a.,5
same,"Herbicidal effect, common lambsquarter",[5]; 10 g./a.,5
same,"Herbicidal effect, common lambsquarter",[5]; 20 g./a.,5
same,"Herbicidal effect, common lambsquarter",[5]; 40 g./a.,5
same,Phytotoxicity on rice,rice; 10 g/a,0
same,Phytotoxicity on rice,rice; 20 g/a,0
same,Phytotoxicity on rice,rice; 40 g/a,1
same,Mortality,[7],81.2%
same,Mortality,nematode,100%
same,"Herbicidal effects, barnyard grass",[9]; 10 g/a,5
same,"Herbicidal effects, barnyard grass",[9]; 20 g/a,5
same,"Herbicidal effects, barnyard grass",[9]; 40 g/a,5
same,"Herbicidal effects, broad-leaved weeds",[10]; 10 g/a,5
same,"Herbicidal effects, broad-leaved weeds",[10]; 20 g/a,5
same,"Herbicidal effects, broad-leaved weeds",[10]; 40 g/a,5
CCOP(=O)(SCC(=O)N1CCCCC1CC)SCc1ccc(CC)cc1 (stereo not shown) [Compound 58],"Herbicidal effect, barnyard grass",[1]; 10 g./a.,4
same,"Herbicidal effect, barnyard grass",[1]; 20 g./a.,5
same,"Herbicidal effect, barnyard grass",[1]; 40 g./a.,5
same,"Herbicidal effect, large crabgrass",[2]; 10 g./a.,5
same,"Herbicidal effect, large crabgrass",[2]; 20 g./a.,5
same,"Herbicidal effect, large crabgrass",[2]; 40 g./a.,5
same,"Herbicidal effect, radish",radish; 10 g./a.,0
same,"Herbicidal effect, radish",radish; 20 g./a.,0
same,"Herbicidal effect, radish",radish; 40 g./a.,0
same,"Herbicidal effect, redroot pigweed",[3]; 10 g./a.,3
same,"Herbicidal effect, redroot pigweed",[3]; 20 g./a.,4
same,"Herbicidal effect, redroot pigweed",[3]; 40 g./a.,5
same,"Herbicidal effect, common purslane",[4]; 10 g./a.,3
same,"Herbicidal effect, common purslane",[4]; 20 g./a.,4
same,"Herbicidal effect, common purslane",[4]; 40 g./a.,5
same,"Herbicidal effect, common lambsquarter",[5]; 10 g./a.,3
same,"Herbicidal effect, common lambsquarter",[5]; 20 g./a.,4
same,"Herbicidal effect, common lambsquarter",[5]; 40 g./a.,4
same,Phytotoxicity on rice,rice; 10 g/a,0
same,Phytotoxicity on rice,rice; 20 g/a,0
same,Phytotoxicity on rice,rice; 40 g/a,0
same,Mortality,[7],72.0%
same,"Herbicidal effects, barnyard grass",[9]; 10 g/a,5
same,"Herbicidal effects, barnyard grass",[9]; 20 g/a,5
same,"Herbicidal effects, barnyard grass",[9]; 40 g/a,5
same,"Herbicidal effects, broad-leaved weeds",[10]; 10 g/a,5
same,"Herbicidal effects, broad-leaved weeds",[10]; 20 g/a,5
same,"Herbicidal effects, broad-leaved weeds",[10]; 40 g/a,5
CCOP(=O)(SCCc1ccc(Cl)cc1)SCC(=O)N1CCCCC1C (stereo not shown) [Compound 60],Degree of damage,[11],-
CCOP(=O)(SCC(=O)N1CCCCC1C)SCc1ccc(Cl)c(Cl)c1 (stereo not shown) [Compound 61],Degree of damage,[11],-
